US3975421A, “15-Substituted 11α-cyano-prostaglandins and related compounds” (American Home Products Corporation, priority 1974, dated 1976)

System: adjuvant-induced arthritis in rats
Assay: adjuvant-induced arthritis in rats, per cent inhibition of paw swelling
Type: in vivo, rat
Details: 0.5 mg/kg s.c. daily for sixteen days, male rats
Source text: In using the compounds of the invention to produce antiinflammatory effects in warm-blooded animals, they may be administered subcutaneously. The particular dosage to obtain the antiinflammatory effect will vary with the particular compound employed and the degree of antiinflammatory response desired. The antiinflammatory response produced upon subcutaneous administration can be observed by the method described by Newbould, B. B. in Brit. J. Pharm. Chemoth., 21, 127 (1963) and Rosenthale, M. E., and Nagra, C. L. in Proc. Soc. Exp. Biol. and Med., 125, 149 (1967). In this procedure, adjuvant-induced arthritis is induced in rats by injection of dead mycobacteria into the hind footpad. The test compound is administered subcutaneously daily for sixteen consecutive days beginning with the day of injection. The injected foot swells rapidly during the first 4 to 6 days. Thereafter, the swelling subsides until the 8th day, and then it resumes. About 4 to 10 days after injection, the other hind paw (un-injected) becomes swollen and other inflammatory nodules may be found in the ear and tail. The swelling of the injected paw at day 4 is taken as an indication of an acute inflammatory response. The swelling of the same paw at day 16 is taken as a delayed inflammatory response. The swelling of the other hind paw at day 16 is taken as a delayed hypersensitivity reaction. Active antiinflammatory compounds reduce the swelling in either the acute and/or the delayed phases. […] The percent protection against swelling, as compared to non-treated controls, is calculated and is used as a measure of antiinflammatory activity.
Male rats are randomly dispersed into groups. […] On day 4, the volume of the injected (right) foot is measured by means of a mercury plethysmograph. On day 16, the volumes of both the injected, right foot and the left hind foot are measured. The ability of the test compound to protect against acute and delayed swelling is measured by calculating the per cent decrease in volume of the test animals as compared to controls. […]

CCCCCC(C)(O)/C=C/[C@H]1[C@H](C#N)CC(O)[C@@H]1CCCCCCC(=O)O (stereo partly drawn) [3α-cyano-5(RS)-hydroxy-2β-[(3RS)-3-hydroxy-3-methyl-trans-1-octenyl]-1α-cyclopentaneheptanoic acid]
% Inhibition of Swelling, Day 4, Rt. Paw (injected right paw, day 4 (acute)): 25%
% Inhibition of Swelling, Day 16, Rt. Paw (injected right paw, day 16 (delayed)): 31%
% Inhibition of Swelling, Day 16, Left Paw (un-injected left paw, day 16 (delayed hypersensitivity)): 35%
